Experimental data reported in patent publication US20040204340A1, “Polyprolyl inhibitors of cyclophilin” (Guilford Pharmaceuticals, Inc., priority 2003, published 2004).

Tested on: cultured chick sensory neurons from dorsal root ganglia
Test: Chick dorsal root ganglion cultures and neurite outgrowth
Assay type: cell-based
Conditions: 1 mM, 48 h after treatment (FIGS. 4, 5)
Procedure: Dorsal root ganglia were dissected from chick embryos of ten day gestation. Whole ganglion explants were cultured on thin layer Matrigel-coated 12 well plates with Liebovitz L15 plus high glucose media supplemented with 2 mM glutamine and […], and also containing 10 μM cytosine 9-D arabinofuranoside (Ara C) at 37° C. in an environment containing 5% CO2. Twenty-four hours later, the DRGs were treated with various concentrations of nerve growth factor, immunophilin ligands or combinations of NFG plus drugs. Forty-eight hours after drug treatment, the ganglia were visualized under phase contrast or Hoffman Modulation contrast with a Zeiss Axiovert inverted microscope. Photomicrographs of the explants were made, and neurite outgrowth was quantitated. Neurites longer than the DRG diameter were counted as positive, with total number of neurites quantitated per each experimental condition. Three to four DRGs are cultured per well, and each treatment was performed in duplicate.

Substance | Promotion of neurite outgrowth (neurotrophic effects)
Ac-Pro-Ala-Pro-Ala-NH2 (Ac-PAPA-NH2) | potent neurotrophic effects
Ac-Pro-Gly-Pro-Phe-NH2 (Ac-PGPF-NH2) | powerful neurotrophic effects
